Data published in the supplement of paper PMC13380429.

Columns and labels:
HepG2 [1] = test: drug sensitivity score (DSS) for viability; higher = more toxic; extreme values may be limits of the assay; conditions: 72 h
U2OS [2] = test: as above; conditions: 72 h
Calu-3 [3] = test: as above; conditions: 72 h
Vero E6 [4] = test: as above; conditions: 72 h
Caco-2 [5] = test: as above; conditions: 72 h
[6] = tested on: A549-ACE2 infected with SARS-CoV-2; test: cell count relative to DMSO; higher = less toxic; conditions: 24 h
[7] = tested on: A549-ACE2 infected with SARS-CoV-2; test: SARS-CoV-2 infection rate relative to DMSO; higher = more infection; conditions: 24 h
[8] = tested on: A549-ACE2 infected with SARS-CoV-2; test: morphology score (similarity to uninfected cells); higher = more like uninfected cells; conditions: 24 h
A549-ACE2 [9] = test: phospholipidosis EC50; higher = less potent phospholipidosis inducer
A549-ACE2 [10] = test: drug-induced phospholipidosis relative to tamoxifen; higher = more phospholipidosis
HepG2 [11] = test: cell viability relative to DMSO; higher = less toxic; conditions: 72 h
U2OS [12] = test: as above; conditions: 72 h
Calu-3 [13] = test: as above; conditions: 72 h
Vero E6 [14] = test: as above; conditions: 72 h
Caco-2 [15] = test: as above; conditions: 72 h
HepG2 [16] = test: relative viability EC50 (midpoint between 100% and the lowest measured viability); higher = less toxic; conditions: 72 h
U2OS [17] = test: as above; conditions: 72 h
Calu-3 [18] = test: as above; conditions: 72 h
Caco-2 [19] = test: as above; conditions: 72 h
Vero E6 [20] = test: as above; conditions: 72 h

CCn1c2ccccc2c2cc(Nc3ccnc(NCCCN4CCOCC4)n3)ccc21 [EHop-016]
Conditions	drug sensitivity score	relative viability EC50 [nM]
Caco-2 [5]	6.1	–
Caco-2 [19]	–	1690
Calu-3 [3]	5.3	–
Calu-3 [18]	–	3090
HepG2 [1]	4.2	–
HepG2 [16]	–	2960
U2OS [2]	5.1	–
U2OS [17]	–	2060
Vero E6 [4]	2.6	–

Conditions	SARS-CoV-2 infection rate [%]	cell count [%]	cell viability [%]	morphology score	phospholipidosis EC50 [nM]
A549-ACE2 [9], 24 h	–	–	–	–	895
A549-ACE2 [9], 48 h	–	–	–	–	1390
A549-ACE2 [9], 72 h	–	–	–	–	3130
Caco-2 [15], 1 nM	–	–	91.4	–	–
Caco-2 [15], 10 nM	–	–	93.5	–	–
Caco-2 [15], 100 nM	–	–	97.4	–	–
Caco-2 [15], 1000 nM	–	–	85.5	–	–
Caco-2 [15], 10000 nM	–	–	31.2	–	–
Calu-3 [13], 1 nM	–	–	95	–	–
Calu-3 [13], 10 nM	–	–	98	–	–
Calu-3 [13], 100 nM	–	–	100	–	–
Calu-3 [13], 1000 nM	–	–	99	–	–
Calu-3 [13], 10000 nM	–	–	6.7	–	–
HepG2 [11], 1 nM	–	–	103	–	–
HepG2 [11], 10 nM	–	–	104	–	–
HepG2 [11], 100 nM	–	–	98.5	–	–
HepG2 [11], 1000 nM	–	–	98	–	–
HepG2 [11], 10000 nM	–	–	28.1	–	–
U2OS [12], 1 nM	–	–	100	–	–
U2OS [12], 10 nM	–	–	94.1	–	–
U2OS [12], 100 nM	–	–	101	–	–
U2OS [12], 1000 nM	–	–	91	–	–
U2OS [12], 10000 nM	–	–	34.6	–	–
Vero E6 [14], 1 nM	–	–	102	–	–
Vero E6 [14], 10 nM	–	–	97.2	–	–
Vero E6 [14], 100 nM	–	–	88.9	–	–
Vero E6 [14], 1000 nM	–	–	94.3	–	–
Vero E6 [14], 10000 nM	–	–	64.3	–	–
[6], 0.1 µM	–	93	–	–	–
[6], 0.3 µM	–	100	–	–	–
[6], 1 µM	–	103	–	–	–
[6], 3 µM	–	118	–	–	–
[7], 0.1 µM	98	–	–	–	–
[7], 0.3 µM	97	–	–	–	–
[7], 1 µM	70	–	–	–	–
[7], 3 µM	23	–	–	–	–
[8], 0.1 µM	–	–	–	-0.12	–
[8], 0.3 µM	–	–	–	-0.03	–
[8], 1 µM	–	–	–	0.46	–
[8], 3 µM	–	–	–	0.79	–

drug-induced phospholipidosis [%], A549-ACE2 [10]
Conditions	0.3 µM	0.833333 µM	3.33333 µM	6.66667 µM	10 µM	30 µM
24 h	3.51	16.7	47	47.4	52.6	11.5
48 h	4.02	8.22	56.9	63.9	72.1	40.9
72 h	3.76	2.65	48.2	69.6	81.3	–

O=C(c1ccc(-c2ccc(Cl)cc2)o1)N(Cc1ccccn1)c1ccc(N2CCNCC2)cc1 [MK2-IN-1]
Conditions	drug sensitivity score	relative viability EC50 [nM]
Caco-2 [5]	1.5	–
Calu-3 [3]	1.7	–
HepG2 [1]	1.7	–
U2OS [2]	0.2	–
U2OS [17]	–	> 10000
Vero E6 [4]	2.2	–

Conditions	SARS-CoV-2 infection rate [%]	cell count [%]	cell viability [%]	morphology score	phospholipidosis EC50 [nM]
A549-ACE2 [9], 24 h	–	–	–	–	3590
A549-ACE2 [9], 48 h	–	–	–	–	4690
A549-ACE2 [9], 72 h	–	–	–	–	4850
Caco-2 [15], 1 nM	–	–	104	–	–
Caco-2 [15], 10 nM	–	–	111	–	–
Caco-2 [15], 100 nM	–	–	100	–	–
Caco-2 [15], 1000 nM	–	–	131	–	–
Caco-2 [15], 10000 nM	–	–	52.9	–	–
Calu-3 [13], 1 nM	–	–	92.2	–	–
Calu-3 [13], 10 nM	–	–	112	–	–
Calu-3 [13], 100 nM	–	–	93.9	–	–
Calu-3 [13], 1000 nM	–	–	116	–	–
Calu-3 [13], 10000 nM	–	–	54.9	–	–
HepG2 [11], 1 nM	–	–	102	–	–
HepG2 [11], 10 nM	–	–	109	–	–
HepG2 [11], 100 nM	–	–	115	–	–
HepG2 [11], 1000 nM	–	–	97.9	–	–
HepG2 [11], 10000 nM	–	–	68.2	–	–
U2OS [12], 1 nM	–	–	97.9	–	–
U2OS [12], 10 nM	–	–	103	–	–
U2OS [12], 100 nM	–	–	95.9	–	–
U2OS [12], 1000 nM	–	–	104	–	–
U2OS [12], 10000 nM	–	–	83.2	–	–
Vero E6 [14], 1 nM	–	–	96.5	–	–
Vero E6 [14], 10 nM	–	–	94	–	–
Vero E6 [14], 100 nM	–	–	98.1	–	–
Vero E6 [14], 1000 nM	–	–	95.7	–	–
Vero E6 [14], 10000 nM	–	–	67.6	–	–
[6], 0.1 µM	–	100	–	–	–
[6], 0.3 µM	–	102	–	–	–
[6], 1 µM	–	107	–	–	–
[6], 3 µM	–	117	–	–	–
[7], 0.1 µM	97	–	–	–	–
[7], 0.3 µM	88	–	–	–	–
[7], 1 µM	77	–	–	–	–
[7], 3 µM	29	–	–	–	–
[8], 0.1 µM	–	–	–	0.14	–
[8], 0.3 µM	–	–	–	0.26	–
[8], 1 µM	–	–	–	0.34	–
[8], 3 µM	–	–	–	0.75	–

drug-induced phospholipidosis [%], A549-ACE2 [10]
Conditions	0.3 µM	0.833333 µM	3.33333 µM	6.66667 µM	10 µM	30 µM
24 h	3.45	9.1	31.8	109	102	96.8
48 h	6.99	4.08	23	127	127	153
72 h	5.37	-1.19	20.6	118	139	–

CC1(C)CC[C@]2(NC(=O)C(C)(F)F)CC[C@]3(C)[C@H](C(=O)C=C4[C@@]5(C)C=C(C#N)C(=O)C(C)(C)[C@@H]5CC[C@]43C)[C@@H]2C1 [Omaveloxolone (RTA-408)]
Conditions	drug sensitivity score	relative viability EC50 [nM]
Caco-2 [5]	14.5	–
Caco-2 [19]	–	450
Calu-3 [3]	15.4	–
Calu-3 [18]	–	452
HepG2 [1]	20.7	–
HepG2 [16]	–	192
U2OS [2]	17.9	–
U2OS [17]	–	321
Vero E6 [4]	16.6	–
Vero E6 [20]	–	410

Conditions	SARS-CoV-2 infection rate, [7] [%]	cell count, [6] [%]	cell viability, Caco-2 [15] [%]	cell viability, Calu-3 [13] [%]	cell viability, HepG2 [11] [%]	cell viability, U2OS [12] [%]	cell viability, Vero E6 [14] [%]	morphology score, [8]
1 nM	–	–	100	99.6	97.6	96.8	107	–
10 nM	–	–	102	118	91.6	102	108	–
100 nM	–	–	85.7	90.7	83.6	98.7	103	–
0.3 µM	111	97	–	–	–	–	–	-0.26
1000 nM	–	–	32.3	23.6	1.2	1.9	7.7	–
3 µM	0	1	–	–	–	–	–	0.09
10000 nM	–	–	5.4	1.6	-0.3	-0.1	-0.1	–

A549-ACE2 [10], 0.3 µM
Conditions	drug-induced phospholipidosis [%]
24 h	9.83
48 h	10.5
72 h	21.8

COc1cc2ncnc(Sc3nnc(C)s3)c2cc1OC [SKLB1002]
Conditions	drug sensitivity score	relative viability EC50 [nM]
Caco-2 [5]	1.9	–
Calu-3 [3]	0	–
Calu-3 [18]	–	> 10000
HepG2 [1]	1.7	–
U2OS [2]	0	–
U2OS [17]	–	> 10000
Vero E6 [4]	0	–
Vero E6 [20]	–	> 10000

Conditions	SARS-CoV-2 infection rate, [7] [%]	cell count, [6] [%]	cell viability, Caco-2 [15] [%]	cell viability, Calu-3 [13] [%]	cell viability, HepG2 [11] [%]	cell viability, U2OS [12] [%]	cell viability, Vero E6 [14] [%]	morphology score, [8]
1 nM	–	–	101	103	104	99.1	96.2	–
10 nM	–	–	92	99.2	99.6	99.4	94.8	–
100 nM	–	–	97.7	96.3	105	102	92.7	–
0.3 µM	105	102	–	–	–	–	–	-0.11
1000 nM	–	–	94.4	92.1	105	102	98.4	–
3 µM	105	102	–	–	–	–	–	-0.15
10 µM	106	97	–	–	–	–	–	0.01
10000 nM	–	–	73.7	107	59.1	88.3	87.8	–
30 µM	79	85	–	–	–	–	–	0.25

drug-induced phospholipidosis [%], A549-ACE2 [10]
Conditions	0.3 µM	0.833333 µM	3.33333 µM	6.66667 µM	10 µM	30 µM
24 h	7.29	1.02	4.5	10.7	22.8	44.1
48 h	7.01	-1.13	-0.08	3.84	12.5	–
72 h	8.05	-2.71	-0.571	-0.945	0.143	–

CCN(CC)CCCC(C)Nc1ccnc2cc(Cl)ccc12 (stereo unspecified) [chloroquine]
Conditions	drug sensitivity score
Calu-3 [3]	0
HepG2 [1]	0.6
U2OS [2]	0

[8]
Conditions	morphology score
0.3 µM	0.17
3 µM	0.37
10 µM	0.63
30 µM	0.8
